We go through one compound from patent publication US8940766B2, “Methods for preventing and/or treating lysosomal storage disorders” (Amicus Therapeutics, Inc., priority 2009, dated 2015).

One assay concerns the target T1, lysosomal GCase (Homo sapiens, UniProt P04062).
T1 construct: assayed in situ using fibroblasts established from a normal subject; endogenous in cells; host or cells: fibroblasts from a normal subject
T1 sequence (P04062 40-536): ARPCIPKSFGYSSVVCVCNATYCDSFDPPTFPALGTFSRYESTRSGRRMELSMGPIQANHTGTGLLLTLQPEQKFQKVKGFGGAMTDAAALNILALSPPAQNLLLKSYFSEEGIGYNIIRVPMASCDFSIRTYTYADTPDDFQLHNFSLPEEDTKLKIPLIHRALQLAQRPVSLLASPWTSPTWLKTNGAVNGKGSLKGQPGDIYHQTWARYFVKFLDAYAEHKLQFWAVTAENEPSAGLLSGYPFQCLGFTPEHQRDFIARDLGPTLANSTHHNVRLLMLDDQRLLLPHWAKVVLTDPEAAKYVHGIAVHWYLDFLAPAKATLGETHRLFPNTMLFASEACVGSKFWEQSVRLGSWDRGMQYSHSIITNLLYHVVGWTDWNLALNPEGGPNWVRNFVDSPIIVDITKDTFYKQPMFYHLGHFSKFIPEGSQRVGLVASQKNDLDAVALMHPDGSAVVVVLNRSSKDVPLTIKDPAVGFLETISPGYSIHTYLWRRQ
Description: In situ washout assay in fibroblasts (recovery of lysosomal GCase activity after compound removal). The assay is classed as cell-based. The settings on record: fibroblasts treated at IC90 for 16-24 hours, then drug-free medium; single exponential fit. The procedure: Cells seeded in 48-well plates were incubated with the indicated concentrations of compound for 16-24 hours. For the dose-response assays, cells were incubated with the in situ substrate 5-(pentafluorobenzoylamino)fluorescein di-β-D-glucopyranoside (PFBFDβGlu) for 1 hour and subsequently lysed to determine the extent of substrate hydrolysis in the presence of compound. […] Inhibition was determined as the ratio of activity in the presence of compound to that in the absence of compound. […] Cells were washed extensively and incubated in drug-free medium to allow net compound efflux from cells. Cells were then tested for lysosomal GCase activity at 2 hour intervals over a total period of 8 hours following compound removal. The increase in activity over time was fitted with a single exponential function to determine the compound's washout time.

Assay [1] concerns the target T2, recombinant human GCase (rhGCase; Cerezyme®) (Homo sapiens, UniProt P04062, R534H).
T2 construct: purchased Genzyme Corp
T2 sequence (P04062 40-536 R534H): T1 sequence (P04062 40-536) with R495H
Nature of the assay: In vitro enzyme inhibition assay of rhGCase with 4-MU-β-D-Glc fluorogenic substrate. As to conditions: pH 5.2; average of three independent experiments. The assay is classed as biochemical. The procedure:
The binding affinity (defined here by Ki binding constant) of GCase for small molecule pharmacological chaperones described in this document were empirically determined using enzyme inhibition assays. In brief, the enzyme inhibition assays used monitored the ability of test compound to bind and prevent the hydrolysis of a fluorogenic substrate in a concentration-dependent manner. Specifically, the enzyme activity of recombinant human GCase (rhGCase; Cerezyme®, Genzyme Corp.) was measured using the 4-methylumbelliferyl-β-D-glucopyranoside (4-MU-β-D-Glc) fluorogenic substrate in the absence or in the presence of varying amounts of each test compound. […] The enzyme inhibition assays were performed at both pH 7.0 (endoplasmic reticulum pH) and at pH 5.2 (lysosomal pH) to gain insight into the binding affinity (i.e., potency) of compounds for GCase in the endoplasmic reticulum and lysososome.
Various concentrations of test compounds were prepared in buffer “M” consisting of 50 mM sodium phosphate buffer with 0.25% sodium taurocholate at pH 7.0 and pH 5.2. Enzyme (Cerezyme®, a recombinant form of the human enzyme β-glucocerebrosidase) was also diluted in the same buffer “M” at pH 7.0 and pH 5.2. […] Fluorescence was measured on a plate reader for 1 sec/well using 355 nm excitation and 460 nm emission.

Numbering of substitutions follows the chain as printed.

What is called IC50 is the midpoint of a concentration-inhibition curve. As to `O[C@@H]1[C@@H](CCl)CNC[C@H]1O` [Compound B, (3R,4R,5S)-5-(chloromethyl)piperidine-3,4-diol], the “In Situ Washout” value at lysosomal GCase was determined as 2.9 ± 0.22 h. The IC50 in assay [1] was 73 ± 9 nM.
